Laboratory results as given in patent US11957759B1, “Rapidly accelerated fibrosarcoma (RAF) degrading compounds and associated methods of use” (Arvinas Operations, Inc., priority 2022, dated 2024).

Assays:
B-RAF V600E = biological target: T1, B-RAF V600E (Homo sapiens, UniProt P15056, V600E); experiment: Target protein degradation, assay C: T-Rex 293 cells, HA-BRAF_V600E, 384 well format; assay type: cell-based; details: T-Rex 293 HA-BRAF_V600E cells, 24 hours, Examples 83-269; for DC50: Assay C; for Dmax: T-REx-293, Assay C
T1 construct: expressed in transfected cells; host or cells: T-Rex 293 cells (Invitrogen #R71007)
T1 sequence (P15056 whole entry V600E): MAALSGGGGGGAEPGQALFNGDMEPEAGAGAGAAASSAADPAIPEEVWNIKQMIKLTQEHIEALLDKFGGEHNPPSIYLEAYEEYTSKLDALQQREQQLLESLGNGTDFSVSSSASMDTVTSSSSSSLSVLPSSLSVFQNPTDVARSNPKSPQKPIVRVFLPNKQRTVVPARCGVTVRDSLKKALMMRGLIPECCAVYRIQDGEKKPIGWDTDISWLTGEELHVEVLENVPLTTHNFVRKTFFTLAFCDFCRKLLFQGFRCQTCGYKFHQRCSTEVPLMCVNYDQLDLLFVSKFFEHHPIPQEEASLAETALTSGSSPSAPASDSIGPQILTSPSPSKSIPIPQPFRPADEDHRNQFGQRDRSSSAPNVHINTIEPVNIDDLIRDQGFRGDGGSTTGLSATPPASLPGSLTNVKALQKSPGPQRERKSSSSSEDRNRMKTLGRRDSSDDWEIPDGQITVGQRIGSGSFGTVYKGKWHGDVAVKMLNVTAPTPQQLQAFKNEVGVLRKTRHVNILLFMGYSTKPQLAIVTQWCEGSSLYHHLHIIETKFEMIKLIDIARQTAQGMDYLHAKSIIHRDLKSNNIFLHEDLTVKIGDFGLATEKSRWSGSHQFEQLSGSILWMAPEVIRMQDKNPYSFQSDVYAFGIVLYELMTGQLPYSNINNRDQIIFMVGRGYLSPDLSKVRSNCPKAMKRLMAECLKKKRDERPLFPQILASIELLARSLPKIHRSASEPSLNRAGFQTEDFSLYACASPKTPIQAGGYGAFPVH
Procedure, shortened: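 After 24 h exposure to an 11-point 1:3 series (300 nM–5 pM, 0.5% DMSO), fixed T-Rex 293 cells carrying HA-BRAF V600E (induced with 1 ng/mL doxycycline) were stained anti-HA and imaged. DC50 and Dmax were derived from BRAF intensity relative to control, and cytotoxicity from nuclear counts.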

B-RAF G466V = biological target: T2, B-RAF G466V (Homo sapiens, UniProt P15056, G466V); experiment: Target protein degradation, assay D: T-Rex 293 cells, HA-BRAF_G466V, 384 well format; assay type: cell-based; details: T-Rex 293 HA-BRAF_G466V cells, 24 hours, Examples 83-269; for DC50: Assay D; for Dmax: T-REx-293, Assay D
T2 construct: expressed in transfected cells; host or cells: T-Rex 293 cells (Invitrogen #R71007)
T2 sequence (P15056 whole entry G466V): as the sequence (P15056 whole entry V600E) above, with G466V, E600V counted along it
Procedure, shortened: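 Degradation measured by high-content imaging of anti-HA immunofluorescence in fixed T-Rex 293 cells carrying inducible HA-BRAF G466V (1 ng/mL doxycycline), after 24 h PROTAC exposure at 37 °C over 300 nM–5 pM (1:3, 11 points, 0.5% DMSO). Outputs DC50 and Dmax as % of control; nuclei counts against DMSO wells gauge toxicity.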

Structure (SMILES)	DC50 (B-RAF V600E) [µM]	Dmax (B-RAF V600E) [%]	DC50 (B-RAF G466V) [µM]	Dmax (B-RAF G466V) [%]
C[C@H]1CN(CC2CCN(c3ccc4c(c3F)CN([C@@H]3CCC(=O)NC3=O)C4=O)CC2)CCN1c1ccc(-n2cnc3ccc(Oc4c(F)ccc(NS(=O)(=O)N5CC[C@@H](F)C5)c4C#N)cc3c2=O)nc1 [Example 214, (3R)-N-{2-cyano-3-[(3-{5-[(2S)-4-[(1-{2-[(3R)-2,6-dioxopiperidin-3-yl]-4-fluoro-1-oxo-2,3-dihydro-1H-isoindol-5-yl}piperidin-4-yl)methyl]-2-methylpiperazin-1-yl]pyridin-2-yl}-4-oxo-3,4-dihydroquinazolin-6-yl)oxy]-4-fluorophenyl}-3-fluoropyrrolidine-1-sulfonamide]	> 0.5	–	0.01 to 0.03	≤ 35
N#Cc1c(NS(=O)(=O)N2CC[C@@H](F)C2)ccc(F)c1Oc1ccc2ncn(-c3ccc(N4CCC(CN5CCN(c6ccc7c(c6)CN([C@H]6CCC(=O)NC6=O)C7=O)CC5)C4)cc3)c(=O)c2c1 (stereo partly drawn) [Example 217, (3R)-N-(2-cyano-3-{[3-(4-{3-[(4-{2-[(3S)-2,6-dioxopiperidin-3-yl]-1-oxo-2,3-dihydro-1H-isoindol-5-yl}piperazin-1-yl)methyl]pyrrolidin-1-yl}phenyl)-4-oxo-3,4-dihydroquinazolin-6-yl]oxy}-4-fluorophenyl)-3-fluoropyrrolidine-1-sulfonamide]	0.05 to 0.5	35 to 70	0.001 to 0.01	≤ 35
Cn1c(=O)n(C2CCC(=O)NC2=O)c2cccc(N3CC(CN4CCN(c5ccc(-n6cnc7ccc(Oc8c(F)ccc(NS(=O)(=O)N9CC[C@@H](F)C9)c8C#N)cc7c6=O)cc5)CC4)C3)c21 (stereo partly drawn) [Example 218, (3R)-N-{2-cyano-3-[(3-{4-[4-({1-[1-(2,6-dioxopiperidin-3-yl)-3-methyl-2-oxo-2,3-dihydro-1H-1,3-benzodiazol-4-yl]azetidin-3-yl}methyl)piperazin-1-yl]phenyl}-4-oxo-3,4-dihydroquinazolin-6-yl)oxy]-4-fluorophenyl}-3-fluoropyrrolidine-1-sulfonamide]	0.05 to 0.5	35 to 70	0.001 to 0.01	35 to 70
N#Cc1c(NS(=O)(=O)N2CC[C@@H](F)C2)ccc(F)c1Oc1ccc2ncn(-c3ccc(N4CCC(CN5CC6(CCC(c7ccc8c(c7)CN([C@H]7CCC(=O)NC7=O)C8=O)CC6)C5)CC4)cc3)c(=O)c2c1 [Example 219, (3R)-N-(2-cyano-3-{[3-(4-{4-[(7-{2-[(3S)-2,6-dioxopiperidin-3-yl]-1-oxo-2,3-dihydro-1H-isoindol-5-yl}-2-azaspiro[3.5]nonan-2-yl)methyl]piperidin-1-yl}phenyl)-4-oxo-3,4-dihydroquinazolin-6-yl]oxy}-4-fluorophenyl)-3-fluoropyrrolidine-1-sulfonamide]	0.05 to 0.5	35 to 70	0.001 to 0.01	35 to 70
N#Cc1c(NS(=O)(=O)N2CC[C@@H](F)C2)ccc(F)c1Oc1ccc2ncn(-c3ccc(N4CCC(CN5CC6(CCC(c7ccc8c(c7)CN([C@@H]7CCC(=O)NC7=O)C8=O)CC6)C5)CC4)cc3)c(=O)c2c1 [Example 220, (3R)-N-(2-cyano-3-{[3-(4-{4-[(7-{2-[(3R)-2,6-dioxopiperidin-3-yl]-1-oxo-2,3-dihydro-1H-isoindol-5-yl}-2-azaspiro[3.5]nonan-2-yl)methyl]piperidin-1-yl}phenyl)-4-oxo-3,4-dihydroquinazolin-6-yl]oxy}-4-fluorophenyl)-3-fluoropyrrolidine-1-sulfonamide]	0.05 to 0.5	35 to 70	0.01 to 0.03	35 to 70
N#Cc1c(NS(=O)(=O)N2CC[C@@H](F)C2)ccc(F)c1Oc1ccc2ncn(-c3ccc(N4CCC(CN5CCC(c6ccc7c(c6)CN([C@H]6CCC(=O)NC6=O)C7=O)CC5)C4)cc3)c(=O)c2c1 (stereo partly drawn) [Example 221, (3R)-N-(2-cyano-3-{[3-(4-{3-[(4-{2-[(3S)-2,6-dioxopiperidin-3-yl]-1-oxo-2,3-dihydro-1H-isoindol-5-yl}piperidin-1-yl)methyl]pyrrolidin-1-yl}phenyl)-4-oxo-3,4-dihydroquinazolin-6-yl]oxy}-4-fluorophenyl)-3-fluoropyrrolidine-1-sulfonamide]	0.05 to 0.5	35 to 70	0.001 to 0.01	35 to 70
CN(c1ccc2c(c1)CN([C@H]1CCC(=O)NC1=O)C2=O)C1CCC2(CC1)CCN(CC1CCN(c3ccc(-n4cnc5ccc(Oc6c(F)ccc(NS(=O)(=O)N7CC[C@@H](F)C7)c6C#N)cc5c4=O)cc3)CC1)CC2 [Example 222, (3R)-N-[2-cyano-3-({3-[4-(4-{[9-({2-[(3S)-2,6-dioxopiperidin-3-yl]-1-oxo-2,3-dihydro-1H-isoindol-5-yl}(methyl)amino)-3-azaspiro[5.5]undecan-3-yl]methyl}piperidin-1-yl)phenyl]-4-oxo-3,4-dihydroquinazolin-6-yl}oxy)-4-fluorophenyl]-3-fluoropyrrolidine-1-sulfonamide]	0.05 to 0.5	35 to 70	0.001 to 0.01	35 to 70

The next lines start with the values.

DC50 (B-RAF V600E) [µM]	Dmax (B-RAF V600E) [%]	DC50 (B-RAF G466V) [µM]	Dmax (B-RAF G466V) [%]	Structure (SMILES)
0.05 to 0.5	≥ 70	0.001 to 0.01	35 to 70	N#Cc1c(NS(=O)(=O)N2CC[C@@H](F)C2)ccc(F)c1Oc1ccc2ncn(-c3ccc(C4CCCN(CC5CCN(c6ccc7c(c6)CN([C@H]6CCC(=O)NC6=O)C7=O)CC5)C4)cc3)c(=O)c2c1 (stereo partly drawn) [Example 207, (3R)-N-(2-cyano-3-{[3-(4-{1-[(1-{2-[(3S)-2,6-dioxopiperidin-3-yl]-1-oxo-2,3-dihydro-1H-isoindol-5-yl}piperidin-4-yl)methyl]piperidin-3-yl}phenyl)-4-oxo-3,4-dihydroquinazolin-6-yl]oxy}-4-fluorophenyl)-3-fluoropyrrolidine-1-sulfonamide]
0.005 to 0.05	35 to 70	0.001 to 0.01	≤ 35	N#Cc1c(NS(=O)(=O)N2CC[C@@H](F)C2)ccc(F)c1Oc1ccc2ncn(-c3ccc(C4CCN(CC5CCN(c6ccc7c(c6)CN([C@H]6CCC(=O)NC6=O)C7=O)CC5)C4)cc3)c(=O)c2c1 (stereo partly drawn) [Example 208, (3R)-N-(2-cyano-3-{[3-(4-{1-[(1-{2-[(3S)-2,6-dioxopiperidin-3-yl]-1-oxo-2,3-dihydro-1H-isoindol-5-yl}piperidin-4-yl)methyl]pyrrolidin-3-yl}phenyl)-4-oxo-3,4-dihydroquinazolin-6-yl]oxy}-4-fluorophenyl)-3-fluoropyrrolidine-1-sulfonamide]
0.05 to 0.5	35 to 70	0.01 to 0.03	35 to 70	Cc1c(NS(=O)(=O)N2CC[C@@H](F)C2)ccc(F)c1Oc1ccc2ncn(-c3ccc(N4CCN(CC5CCN(c6ccc7c(c6)CN(C6CCC(=O)NC6=O)C7=O)CC5)CC4)cc3)c(=O)c2c1 (stereo partly drawn) [Example 210, (3R)-N-{3-[(3-{4-[4-({1-[2-(2,6-dioxopiperidin-3-yl)-1-oxo-2,3-dihydro-1H-isoindol-5-yl]piperidin-4-yl}methyl)piperazin-1-yl]phenyl}-4-oxo-3,4-dihydroquinazolin-6-yl)oxy]-4-fluoro-2-methylphenyl}-3-fluoropyrrolidine-1-sulfonamide]
0.05 to 0.5	35 to 70	0.001 to 0.01	35 to 70	N#Cc1c(NS(=O)(=O)N2CC[C@@H](F)C2)ccc(F)c1Oc1ccc2ncn(-c3cccc(C4CCN(CC5CCN(c6ccc7c(c6)CN([C@H]6CCC(=O)NC6=O)C7=O)CC5)C4)c3)c(=O)c2c1 (stereo partly drawn) [Example 211, (3R)-N-(2-cyano-3-{[3-(3-{1-[(1-{2-[(3S)-2,6-dioxopiperidin-3-yl]-1-oxo-2,3-dihydro-1H-isoindol-5-yl}piperidin-4-yl)methyl]pyrrolidin-3-yl}phenyl)-4-oxo-3,4-dihydroquinazolin-6-yl]oxy}-4-fluorophenyl)-3-fluoropyrrolidine-1-sulfonamide]
0.05 to 0.5	≤ 35	0.001 to 0.01	≤ 35	C[C@H]1CN(CC2CCN(c3ccc4c(c3F)CN([C@H]3CCC(=O)NC3=O)C4=O)CC2)CCN1c1ccc(-n2cnc3ccc(Oc4c(F)ccc(NS(=O)(=O)N5CC[C@@H](F)C5)c4C#N)cc3c2=O)nc1 [Example 213, (3R)-N-{2-cyano-3-[(3-{5-[(2S)-4-[(1-{2-[(3S)-2,6-dioxopiperidin-3-yl]-4-fluoro-1-oxo-2,3-dihydro-1H-isoindol-5-yl}piperidin-4-yl)methyl]-2-methylpiperazin-1-yl]pyridin-2-yl}-4-oxo-3,4-dihydroquinazolin-6-yl)oxy]-4-fluorophenyl}-3-fluoropyrrolidine-1-sulfonamide]
0.05 to 0.5	35 to 70	0.001 to 0.01	≤ 35	N#Cc1c(NS(=O)(=O)N2CC[C@@H](F)C2)ccc(F)c1Oc1ccc2ncn(-c3ccc(N4CCC(CN5CC(c6ccc7c(c6)CN([C@H]6CCC(=O)NC6=O)C7=O)C5)CC4)cc3)c(=O)c2c1 [Example 215, (3R)-N-(2-cyano-3-{[3-(4-{4-[(3-{2-[(3S)-2,6-dioxopiperidin-3-yl]-1-oxo-2,3-dihydro-1H-isoindol-5-yl}azetidin-1-yl)methyl]piperidin-1-yl}phenyl)-4-oxo-3,4-dihydroquinazolin-6-yl]oxy}-4-fluorophenyl)-3-fluoropyrrolidine-1-sulfonamide]
0.05 to 0.5	35 to 70	0.001 to 0.01	≤ 35	N#Cc1c(NS(=O)(=O)N2CC[C@@H](F)C2)ccc(F)c1Oc1ccc2ncn(-c3ccc(N4CCC(CN5CC(c6ccc7c(c6)CN([C@@H]6CCC(=O)NC6=O)C7=O)C5)CC4)cc3)c(=O)c2c1 [Example 216]
